Reference: patent US20020155192A1, “Yeast transport isoforms” (priority 2000, published 2002)
Where two headings read alike, the source gives them in different places.

How the values were obtained:
Format in all cases: biochemical
Odc2p [1] = molecular target: T1, Odc2p (Saccharomyces cerevisiae, UniProt Q99297); test: Dependence on internal substrate of [14C]oxoglutarate uptake into proteoliposomes reconstituted with recombinant Odc2p; conditions: for [14C]oxoglutarate transport: proteoliposomes preloaded with 20 mM internal substrate, 0.6 mM [14C]oxoglutarate, 45 seconds
T1 construct: made in house; host or cells: S. cerevisiae odc1Δodc2Δ (YPH499 background) carrying pYES2-based pODC2; purified from mitochondria on Ni-NTA agarose
T1 sequence (Q99297 1-307): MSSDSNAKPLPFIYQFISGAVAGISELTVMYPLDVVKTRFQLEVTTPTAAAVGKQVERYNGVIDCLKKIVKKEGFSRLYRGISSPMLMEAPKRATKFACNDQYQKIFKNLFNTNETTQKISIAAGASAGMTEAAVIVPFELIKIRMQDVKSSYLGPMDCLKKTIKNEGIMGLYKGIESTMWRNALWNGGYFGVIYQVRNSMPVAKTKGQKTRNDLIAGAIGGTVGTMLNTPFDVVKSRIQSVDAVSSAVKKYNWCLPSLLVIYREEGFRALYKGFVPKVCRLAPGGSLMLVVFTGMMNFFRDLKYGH
Protocol: (§1) Reconstitution of the ODC proteins into liposomes—Purified ODC proteins were reconstituted by cyclic removal of the detergent with a hydrophobic column (13). The composition of the initial mixture used for reconstitution was: 200 μl of purified isoform (0.3-0.4 μg of protein), 70 μl of 10% Triton X-114, 100 μl of 10% phospholipids in the form of sonicated liposomes, 20 mM oxoglutarate (except where otherwise indicated), 10 mM Pipes (pH 7.0), 0.7 mg of cardiolipin (Sigma) and water to a final volume of 700 μl. These components were mixed thoroughly, and the mixture was recycled 13 times through an Amberlite column (Supelco) (3.0 cm×0.5 cm) preequilibrated with a buffer containing 10 mM Pipes (pH 7.0) and with the substrate at the same concentration as in the starting mixture. All operations were performed at 4° C., except the passages through Amberlite, which were carried out at room temperature.
(§2) External substrate was removed from proteoliposomes on a Sephadex G-75 column preequilibrated with buffer F (50 mM NaCl and 10 mM PIPES, pH 7.0). Transport at 25° C. was started by adding [^14C]oxoglutarate (unless otherwise indicated) to the proteoliposomes, and terminated by addition of 30 mM pyridoxal 5′-phosphate and 10 mM bathophenanthroline (the “inhibitor-stop” method (13)). In controls, inhibitors were added with the labelled substrate. The external radioactivity was removed on Sephadex G-75 and the internal radioactivity was measured. […] The initial rate of transport was calculated in mmol/min per g protein from the time course of isotope equilibration (13). Various other transport activities were also assayed by the inhibitor-stop method. For efflux measurements, the internal substrate pool of the proteoliposomes was made radioactive by carrier-mediated exchange equilibration (13) with 0.1 mM [^14C]oxoglutarate added at high specific radioactivity. After 60 min, the residual external radioactivity was removed by passing the proteoliposomes again through a column of Sephadex G-75. Efflux was started by adding unlabelled external substrate or buffer F alone and terminated by adding the inhibitors indicated above.
(§3) The substrate specificity of purified Odc1p and Odc2p was investigated further by measuring the uptake of [^14C]oxoglutarate into proteoliposomes which had been preloaded with various substrates.
(§4) Proteoliposomes were preloaded internally with various substrates (concentration, 20 mM). Transport was started by adding [^14C]oxoglutarate (final concentration, 0.6 mM) and terminated after 45 seconds.

Odc1p [2] = molecular target: T2, Odc1p (Saccharomyces cerevisiae, UniProt Q03028); test: Kinetic constants (Km, Vmax, Ki) of recombinant purified Odc1p in proteoliposomes
T2 construct: made in house; host or cells: S. cerevisiae odc1Δodc2Δ (YPH499 background) carrying pYES2-based pODC1; purified from mitochondria on Ni-NTA agarose
T2 sequence (Q03028 1-310): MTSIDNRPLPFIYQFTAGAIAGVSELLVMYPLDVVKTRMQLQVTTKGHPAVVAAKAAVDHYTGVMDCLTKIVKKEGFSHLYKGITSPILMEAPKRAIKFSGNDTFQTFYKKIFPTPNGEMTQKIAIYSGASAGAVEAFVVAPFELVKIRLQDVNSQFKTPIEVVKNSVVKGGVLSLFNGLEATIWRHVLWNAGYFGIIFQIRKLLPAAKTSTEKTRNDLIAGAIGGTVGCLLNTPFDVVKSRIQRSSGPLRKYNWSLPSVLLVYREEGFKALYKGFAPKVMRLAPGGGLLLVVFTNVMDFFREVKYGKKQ
Protocol: as §2
(§5) The kinetic constants of the recombinant purified Odc1p and Odc2p were determined by measuring the initial transport rate at various external [^14C]oxoglutarate concentrations, in the presence of a constant saturating internal concentration of 20 mM oxoglutarate.
(§6) The values were calculated from Lineweaver-Burk plots of the rate of [^14C]oxoglutarate versus substrate concentrations. The competing substrates at appropriate constant concentrations were added together with 0.1-2.0 mM [^14C]oxoglutarate to proteoliposomes containing 20 mM oxoglutarate and reconstituted with recombinant Odc1p or Odc2p. The data represent the means ±S.D. of at least three different experiments. n.d., not determined.

Odc2p [3] = molecular target: T1, Odc2p; test: Kinetic constants (Km, Vmax, Ki) of recombinant purified Odc2p in proteoliposomes
Protocol: as §2, §5, §6

Odc1p [4] = molecular target: T2, Odc1p; test: Dependence on internal substrate of [14C]oxoglutarate uptake into proteoliposomes reconstituted with recombinant Odc1p; conditions: for [14C]oxoglutarate transport: proteoliposomes preloaded with 20 mM internal substrate, 0.6 mM [14C]oxoglutarate, 45 seconds
Protocol: as §1, §2, §3, §4

Odc2p [5] = molecular target: T1, Odc2p; test: Homoexchange of other substrates in proteoliposomes reconstituted with Odc2p; conditions: internal concentration 10 mM, external concentration 1 mM
Protocol: as §2
(§7) In order to obtain further information about the mechanism of transport catalyzed by Odc1p and Odc2p, the efflux of [^14C]oxoglutarate from pre-labelled active proteoliposomes was investigated as it provides a more convenient assay for unidirectional transport (13).

Odc1p [6] = molecular target: T2, Odc1p; test: Effect of inhibitors and external compounds on the [14C]oxoglutarate/oxoglutarate exchange by proteoliposomes reconstituted with Odc1p; conditions: Odc1p; for effect of non-radioactive potential substrates on the rate of oxoglutarate uptake (in words): added with 0.4 mM [14C]oxoglutarate, 4.0 mM in FIG. 5, partly data not shown
Protocol: FIG. 5. Effect of dicarboxylates and 2-oxodicarboxylates with different carbon chain length on the rate of [^14C]oxoglutarate uptake into proteoliposomes reconstituted with recombinant Odc1p. Proteoliposomes were preloaded with 20 mM oxoglutarate and reconstituted with recombinant Odc1p. Transport was initiated by the addition of 0.4 mM [^14C]oxoglutarate and terminated after 45 seconds. Oxalate, malonate, succinate, glutarate, adipate, pimelate, suberate (▪) and the corresponding 2-oxoacids (●) were added simultaneously with [1^4C]oxoglutarate at 4.0 mM concentration.
as §1, §2
(§8) In addition, the ability of non-radioactive potential substrates to inhibit the oxoglutarate/oxoglutarate exchange was examined.
Proteoliposomes were preloaded internally with 20 mM oxoglutarate and transport was initiated by the addition of 0.4 mM [^14C]oxoglutarate.

Odc2p [7] = molecular target: T1, Odc2p; test: Effect of inhibitors and external compounds on the [14C]oxoglutarate/oxoglutarate exchange by proteoliposomes reconstituted with Odc2p; conditions: Odc2p, data not shown
Protocol: as §1, §2, §8
Proteoliposomes were preloaded internally with 20 mM oxoglutarate and transport was initiated by the addition of 0.4 mM [^14C]oxoglutarate. The incubation time was 45 seconds. Thiol reagents and α-cyanocinnamate were added 2 min before the labelled substrate; the other inhibitors and external substrates were added together with [^14C]oxoglutarate. The final concentration of the inhibitors was 4 mM, except for mercurials (10 μM), carboxyatractyloside (0.1 mM), N-ethylmaleimide and α-cyanocinnamate (2 mM).

Odc1p [8] = molecular target: T2, Odc1p; test: Homoexchange of other substrates in proteoliposomes reconstituted with Odc1p; conditions: internal concentration 10 mM, external concentration 1 mM
Protocol: as §2, §7

[9] = Odc2p, proteoliposomes preloaded with various substrates
[10] = Odc1p, Lineweaver-Burk plots, 0.1-2.0 mM [14C]oxoglutarate, 20 mM internal oxoglutarate, means ±S.D., read-out: Ki (competition with [14C]oxoglutarate uptake)
[11] = Odc2p, Lineweaver-Burk plots, 0.1-2.0 mM [14C]oxoglutarate, 20 mM internal oxoglutarate, means ±S.D., read-out: Ki (competition with [14C]oxoglutarate uptake)
[12] = Odc1p, proteoliposomes preloaded with various substrates
[13] = read-out: transport affinity (Km) for the oxoglutarate/oxoglutarate exchange

Row | [14C]oxoglutarate transport (Odc2p [1]; Odc2p) | [14C]oxoglutarate uptake with the internal substrate (in words) (Odc2p [1]; [9]) | Ki (Odc1p [2]; [10]) | Ki (Odc2p [3]; [11]) | [14C]oxoglutarate transport (Odc1p [4]; Odc1p) | [14C]oxoglutarate uptake with the internal substrate (in words) (Odc1p [4]; [12]) | homoexchange catalyzed by the proteoliposomes (in words) (Odc2p [5]) | homoexchange catalyzed by the proteoliposomes (in words) (Odc1p [8]) | SMILES | also measured
1 | 14.8 mmol/min per g protein | taken up efficiently | 1830 ± 200 µM | 1640 ± 180 µM | 71.6 mmol/min per g protein | taken up efficiently |  |  | O=C(O)CCCCC(=O)C(=O)O [2-Oxopimelate] | 
2 |  |  | > 15000 µM | > 15000 µM |  |  |  |  | O=C(O)CC(=O)C(=O)O [Oxaloacetate] | 
3 |  | no exchange |  |  |  | no exchange | did not catalyze homoexchanges | did not catalyze homoexchanges | CC(C)CC(=O)C(=O)O [2-oxoisocaproate] | effect of oxomonocarboxylates on the rate of uptake of 0.4 mM oxoglutarate (in words) (Odc1p [6]; 8 mM, 20 times greater than the substrate, data not shown): did not influence; effect of oxomonocarboxylates on the rate of uptake of 0.4 mM oxoglutarate (in words) (Odc2p [7]; 8 mM, 20 times greater than the substrate): did not influence
4 |  | no exchange |  |  |  | no exchange | did not catalyze homoexchanges | did not catalyze homoexchanges | NC(=O)CC[C@H](N)C(=O)O [glutamine] | effect of non-radioactive potential substrates on the rate of oxoglutarate uptake (in words) (Odc1p [6]): no effect; effect of non-radioactive potential substrates on the rate of oxoglutarate uptake (in words) (Odc2p [7]): no effect
5 | 11.4 mmol/min per g protein | taken up efficiently | 1320 ± 130 µM | 1370 ± 160 µM | 56.4 mmol/min per g protein | taken up efficiently |  |  | O=C(O)C[C@H](O)C(=O)O [L-malate] | 
6 |  | no exchange |  |  |  | no exchange | did not catalyze homoexchanges | did not catalyze homoexchanges | Nc1ncnc2c1ncn2[C@@H]1O[C@H](COP(=O)(O)OP(=O)(O)O)[C@@H](O)[C@H]1O [ADP] | 
7 | 22.1 mmol/min per g protein | taken up efficiently | 260 ± 30 µM | 310 ± 40 µM | 85.0 mmol/min per g protein | taken up efficiently |  |  | O=C(O)CCCC(=O)C(=O)O [2-Oxoadipate] | 
8 | 4.3 mmol/min per g protein | much lower activity | > 15000 µM |  | 19.1 mmol/min per g protein | much lower activity |  |  | O=C(O)CCC(=O)O [Succinate] | effect of non-radioactive potential substrates on the rate of oxoglutarate uptake (in words) (Odc1p [6]): virtually no effect; effect of non-radioactive potential substrates on the rate of oxoglutarate uptake (in words) (Odc2p [7]): virtually no effect

Row | SMILES | [14C]oxoglutarate transport (Odc2p [1]; Odc2p) | [14C]oxoglutarate uptake with the internal substrate (in words) (Odc2p [1]; [9]) | Ki (Odc1p [2]; [10]) | Ki (Odc2p [3]; [11]) | [14C]oxoglutarate transport (Odc1p [4]; Odc1p) | [14C]oxoglutarate uptake with the internal substrate (in words) (Odc1p [4]; [12]) | homoexchange catalyzed by the proteoliposomes (in words) (Odc2p [5]) | homoexchange catalyzed by the proteoliposomes (in words) (Odc1p [8]) | also measured
9 | O=C(O)CCC(=O)C(=O)O [2-Oxoglutarate] |  |  |  |  | 112.5 mmol/min per g protein | taken up efficiently |  |  | specific activity (Vmax) for the oxoglutarate/oxoglutarate exchange (Odc1p [2]; Odc1p, 25° C., 20 mM internal oxoglutarate, 24 experiments): 252±53 mmol/min per g protein; Km (Odc1p [2]; [13]): 520 ± 80 µM; specific activity (Vmax) for the oxoglutarate/oxoglutarate exchange (Odc2p [3]; Odc2p, 25° C., 20 mM internal oxoglutarate, 16 experiments): 73±17 mmol/min per g protein; Km (Odc2p [3]; [13]): 470 ± 70 µM
10 | O=C(O)CC(O)(CC(=O)O)C(=O)O [Citrate] | 8.0 mmol/min per g protein | much lower activity |  |  | 28.6 mmol/min per g protein | much lower activity |  |  | Ki (Odc1p [2]): 6000 ± 800 µM; Ki (Odc2p [3]): 5900 ± 600 µM
11 | O=S(=O)(O)O [sulfate] |  |  |  |  |  |  | did not catalyze homoexchanges | did not catalyze homoexchanges | [14C]oxoglutarate uptake with the internal substrate (in words) (Odc2p [1]): no exchange; [14C]oxoglutarate uptake with the internal substrate (in words) (Odc1p [4]): no exchange
